Common to all, as to assay type: physicochemical
The nature of data set [1]: Stability test at room temperature. The following applies: for Purity after 180 days / Crystalline form after 180 days: sealed medicinal low density polyethylene bags; for Purity after 180 days: HPLC; for Crystalline form after 180 days: XRPD. From the text: The crystalline form II prepared in example 2, crystalline form IV prepared in example 4, crystalline form VI prepared in example 8, and crystalline form VII prepared in example 10 were respectively placed in medicinal low density polyethylene bags, sealed, and maintained at room temperature for 180 days, detected by PANalytical X-ray powder diffractometer for its XRPD, and by high performance liquid chromatography for its purity.

The nature of data set [2]: Stability test at high temperature. How it is done:
The crystalline form II prepared in example 2 was subjected to a stability test at 60° C., and the results were shown in Table 7 below.

Data set [3] can be described thus: Stability test under high humidity. From the text: The crystalline form IV prepared in example 4 was subjected to a stability test at 92.5% RH, and the results were shown in Table 8 below.

Consider `COC(=O)C1=C2C[C@H](NS(N)(=O)=O)CN2C(c2nccs2)=N[C@H]1c1ccc(F)c(F)c1F` [Crystalline form VI, methyl (3R,6S)-6-aminosulfonylamino-1-(thiazol-2-yl)-3-(2,3,4-trifluorophenyl)-3,5,6,7-tetrahydropyrrolo[1,2-c]pyrimidin-4-formate], for which, in data set [1], the “purity and crystalline form after 180 days (in words)” value is “remained unchanged”; the “Purity after 180 days” value came to 99.7%; the “Crystalline form after 180 days” value is given as “unchanged”.

Regarding `COC(=O)C1=C2C[C@H](NS(N)(=O)=O)CN2C(c2nccs2)=N[C@H]1c1ccc(F)c(F)c1F` [Crystalline form II, methyl (3R,6S)-6-aminosulfonylamino-1-(thiazol-2-yl)-3-(2,3,4-trifluorophenyl)-3,5,6,7-tetrahydropyrrolo[1,2-c]pyrimidin-4-formate], in data set [1], the “purity and crystalline form after 180 days (in words)” value is given as “remained unchanged”; the “Purity after 180 days” value amounted to 99.5%; the “Crystalline form after 180 days” value is given as “unchanged”. Also, the “HPLC purity (%) Initial” value in data set [2] (60° C. test, initial) is listed as 96.8%. Further, in data set [2] (60° C., after 10 days), the “Crystalline form After 10 days” value is reported as “crystalline form unchanged” and the “HPLC purity (%) After 10 days” value came to 96.6%. In addition, the “change in purity and crystalline form (in words)” value in data set [2] (high temperature condition, 10 days) is “no change in purity and crystalline form”.

As for `COC(=O)C1=C2C[C@H](NS(N)(=O)=O)CN2C(c2nccs2)=N[C@H]1c1ccc(F)c(F)c1F` [Crystalline form IV, methyl (3R,6S)-6-aminosulfonylamino-1-(thiazol-2-yl)-3-(2,3,4-trifluorophenyl)-3,5,6,7-tetrahydropyrrolo[1,2-c]pyrimidin-4-formate], in data set [1], the “purity and crystalline form after 180 days (in words)” value was “remained unchanged”; the “Purity after 180 days” value is 99.3%; the “Crystalline form after 180 days” value is recorded as “unchanged”. In addition, the “HPLC purity (%) Initial” value in data set [3] (92.5% RH test, initial) came to 99.2%. For the same molecule, in data set [3] (92.5% RH, after 10 days), the “HPLC purity (%) After 10 days” value is on record as 99.1%. The “change in purity and crystal form (in words)” value in data set [3] (high humidity condition, 10 days) is “no change in purity and crystal form”. The “purity, color, and properties on preservation at high humidity (in words)” value in data set [3] (relative humidity of up to 92.5% RH) is “purity, color, and properties unchanged”.

Turning to `COC(=O)C1=C2C[C@H](NS(N)(=O)=O)CN2C(c2nccs2)=N[C@H]1c1ccc(F)c(F)c1F` [Crystalline form VII, methyl (3R,6S)-6-aminosulfonylamino-1-(thiazol-2-yl)-3-(2,3,4-trifluorophenyl)-3,5,6,7-tetrahydropyrrolo[1,2-c]pyrimidin-4-formate], in data set [1], the “purity and crystalline form after 180 days (in words)” value is recorded as “remained unchanged”; the “Purity after 180 days” value was 99.5%; the “Crystalline form after 180 days” value is “unchanged”.

Values taken from US10662198B2, “Polymorphic form of compound, preparation method and use thereof” (QILU PHARMACEUTICAL CO., LTD., priority 2017, dated 2020).
